According to patent publication US11548875B2, “Inhibitor compounds for male contraception” (University of Washington, priority 2018, dated 2023):

The compounds below were run against T1, ALDH1A1 (Homo sapiens, UniProt P00352) (assay: Inhibitor screening using purified enzymes: ALDH1A1 activity, retinoic acid production by HPLC). Details: purified enzyme.
T1 sequence (P00352 1-501): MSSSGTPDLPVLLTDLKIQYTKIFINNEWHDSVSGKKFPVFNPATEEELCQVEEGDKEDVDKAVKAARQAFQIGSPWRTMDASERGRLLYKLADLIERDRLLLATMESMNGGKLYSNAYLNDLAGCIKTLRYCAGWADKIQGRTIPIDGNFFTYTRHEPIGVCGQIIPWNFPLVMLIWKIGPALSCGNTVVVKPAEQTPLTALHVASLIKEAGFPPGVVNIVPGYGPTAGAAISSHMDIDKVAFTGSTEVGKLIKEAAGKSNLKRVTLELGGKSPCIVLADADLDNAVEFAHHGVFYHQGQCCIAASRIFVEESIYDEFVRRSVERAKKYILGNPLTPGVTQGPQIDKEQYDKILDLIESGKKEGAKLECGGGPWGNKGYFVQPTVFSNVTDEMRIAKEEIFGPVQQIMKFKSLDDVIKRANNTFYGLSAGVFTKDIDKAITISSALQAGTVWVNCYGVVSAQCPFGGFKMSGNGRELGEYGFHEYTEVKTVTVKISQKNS
Format: biochemical
Excerpt: ALDHs were cloned into bacterial expression vector for in vitro enzyme assays and into mammalian expression vectors for cell-based enzyme assays. Human ALDH1A1 cDNA and human ALDH2 cDNA were purchased from OriGene (SC321535) and Open Biosystems (MHS4771-99611182), respectively. and human ALDH1A2 cDNA was cloned from human testis RNA using RT-PCR (Population Division of the Department of Economic and Social Affairs of the United Nations Secretariat. World Population prospects: the 2008 revision. Available at http://www.un.org/esa/population/ (Retrieved Sep. 30, 2011)). For bacterial expression, an open reading frame of ALDH1A1 and ALDH2 were subcloned into the pETite vector (Lucigen) with a 5′ histidine-tag and that of ALDH1A2 into a pET28 vector (Novagen) with a 3′ histidine-tag. Correct frame and sequences were verified through DNA sequencing (UW DNA sequencing facility). ALDHs were induced with 1 mM IPTG and purified using His.Bind resin (Novagen, San Diego, Calif.) and stored in a buffer containing 20 mM Hepes (pH 8), 150 mM KCl and 1 mM EDTA as previously described (Fierce, Y., de Morais Vieira, M., Piantedosi, R., Wyss, A., Blaner, W. S., and Paik, J. (2008) In vitro and in vivo characterization of retinoid synthesis from beta-carotene. Archives of biochemistry and biophysics 472, 126-138).
ALDH1A1 and ALDH1A2 activity was determined as previously reported (Beedle M T, Stevison F, Zhong G, Topping T, Hogarth C, Isoherranen N, Griswold M D. Sources of All-Trans Retinal Oxidation Independent of the Aldehyde Dehydrogenase 1A Isozymes Exist in the Postnatal Testis. Biol Reprod. 2018 Sep. 21. doi: 10.1093/biolre/ioy200). Briefly, purified enzymes were incubated in a buffer containing 10 mM HEPES buffer (pH 8.0), 150 mM potassium chloride and 2 mM EDTA with 2 mM NAD. Retinoic acid production was determined using HPLC as previously reported (Amory J K, Muller C H, Shimshoni A J, Isoherranen N, Paik J, Moreb J S, Amory D W, Evanoff R, Goldstein A S, Griswold M D. Suppression of spermatogenesis by bisdichloroacetyldiamines is mediated by inhibition of testicular retinoic acid biosynthesis. Journal of Andrology 2011; 32(1):111-119). Inhibitors were diluted in DMSO and added to the reactions. […] For initial screening of inhibitors for ALDH1A2, 1 μg ALDH1A2, 5 μM all-trans-retinal and 5 μM inhibitors were incubated for 15 min at 37° C. […] For this purpose, 0.5 μg ALDH1A2 and […] were incubated for 5 minutes at 37° C. with varying concentrations of inhibitors. To determine specificity toward ALDH1A2, the IC50 for […]
“3-(4-Acryloylphenyl)-1-phenyl-1H-pyrazole-4-carbaldehyde [Compound 309]” showed an IC50 of 0.005 µM.
Work on “3-{4-[(Chloroacetyl)amino]phenyl}-N-(3-fluorophenyl)-1-phenyl-1H-pyrazole-4-carboxamide [Compound 294]” yielded an IC50 of 0.003 µM.
Work on `N#Cc1ccc(-n2cc(C(=O)Nc3cccc(F)c3)c(-c3ccc(NC(=O)C(Cl)Cl)cc3)n2)cc1` [Compound 316a, 3-(4-Dichloroacetamidophenyll)-N-(3-fluorophenyl)-1-(4-cyanophenyl)-1H-pyrazole-4-carboxamide] yielded an IC50 of 0.249 µM.
`O=C(c1ccccc1)N1CCN(c2ccc([N+](=O)[O-])c(N3CCCC3)c2)CC1` [Compound 339, Phenyl-1-{4-[4-nitro-3-(pyrrolidin-1-yl)phenyl]piperazin-1-yl}methanone] showed an IC50 of 0.675 µM.
`O=C(c1cccc(Cl)c1)N1CCN(c2ccc([N+](=O)[O-])c(N3CCCC3)c2)CC1` [Compound 341, 3-Chlorophenyl-1-{4-[4-nitro-3-(pyrrolidin-1-yl)phenyl]piperazin-1-yl}methanone] gave an IC50 of 1.65 µM.
`O=C(c1ccc[nH]1)N1CCN(c2ccc([N+](=O)[O-])c(N3CCCC3)c2)CC1` [Compound 344, {4-[4-Nitro-3-(pyrrolidin-1-yl)phenyl]piperazin-1-yl}(1H-pyrrol-2-yl)methanone] showed an IC50 of 0.453 µM.
`CC(=O)n1cccc1C(=O)N1CCN(c2ccc([N+](=O)[O-])c(N3CCCC3)c2)CC1` [Compound 347, {4-[4-Nitro-3-(pyrrolidin-1-yl)phenyl]piperazin-1-yl}(1-acetyl-pyrrol-2yl)methanone] was tested, and the IC50 was 1.07 µM.
`Cn1cccc1C(=O)N1CCN(c2ccc(NC(=O)C(Cl)Cl)c(N3CCCC3)c2)CC1` [Compound 367, 1-[4-(4-N-Dichloroacetyl-3-(pyrrolidin-1-yl)phenyl]piperazin-1-yl](1-methyl-1H-pyrrol-2-yl)methanone] gave an IC50 of 0.23 µM.
Compound `Cn1cccc1C(=O)N1CCN(c2ccc(NC(=O)CCl)c(N3CCCC3)c2)CC1` [Compound 372, 1-[4-(4-N-Chloroacetyl-3-(pyrrolidin-1-yl)phenyl]piperazin-1-yl](1-methyl-1H-pyrrol-2-yl)methanone] has an IC50 of 0.3 µM.
Compound `Cn1cccc1C(=O)N1CCN(c2ccc(-c3ccc([N+](=O)[O-])cc3)c(N3CCCCC3)c2)CC1` [Compound 373] has an IC50 of 1.44 µM.
